Assays:
[1] = molecular target: T1, RARβ ligand-binding domain (GST-RAR-β-LBD) (Homo sapiens, UniProt P10826); assay: LanthaScreen TR-FRET RARβ co-activator (receptor binding) assay; format: biochemical; details: for EC50: estimated EC50, TR-FRET co-activator assay, 4 h incubation, read-out: EC50 (95% confidence range) RARβ; for binding-curve upper asymptote (coactivator recruitment), RARβ: in words, Fig. 6B
T1 construct: purchased Invitrogen
T1 sequence (P10826 183-417 limits assumed): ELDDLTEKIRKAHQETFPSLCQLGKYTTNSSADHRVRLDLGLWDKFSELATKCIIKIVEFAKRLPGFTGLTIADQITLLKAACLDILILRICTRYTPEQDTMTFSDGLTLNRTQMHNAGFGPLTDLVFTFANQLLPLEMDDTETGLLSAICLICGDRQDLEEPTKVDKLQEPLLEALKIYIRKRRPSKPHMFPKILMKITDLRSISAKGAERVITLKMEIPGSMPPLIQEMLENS
Description: (§1) These predictions were tested through a receptor-binding assay for each RAR isotype (Fig. 6), where the assay signal is dependent on two parameters: the binding affinity of ligand to the RAR LBD, and the affinity of the coactivator for the ligand-LBD complex. For this assay, binding curves and variation in level of the upper asymptote can reflect differences in co-activator affinity for the ligand-LBD complex; variation in affinity of ligand for LBD shifts the midpoint (EC50) of the binding curve, whereas changes in the level of the upper asymptote may result from changes in coactivator affinity for the ligand-LBD complex alone, or in combination with changes in affinity for ligand with LBD.[23]
(§2) The binding interaction of each retinoid with RARα, β and γ were determined in vitro by time-resolved fluorescence resonance energy transfer (TR-FRET) using the LanthaScreen TR-FRET RARα, RARβ, and RARγ co-activator assays according to the manufacturer’s (Invitrogen™) instructions.[23] This uses a terbium-labeled anti-GST antibody, a fluorescein-labeled co activator peptide, and RARα/β/γ ligand-binding domains (LBD) that are tagged with glutathione-S-transferase (GST) in a homogenous assay format. All experiments were performed in black, 384-well low-volume plates in the dark at RT with a 4 h incubation time. The final assay volume was 20 μL and all dilutions were carried out using TR-FRET assay buffer, with a final DMSO concentration of 1%. A mixture of either 3.5 nM GST-RAR-α-LBD or 2.5 nM GST-RAR-β-LBD or 3 nM GST-RAR-γ-LBD with 62.5 nM Tb-anti GST antibody and 30 μM fluorescein-labeled peptide and retinoid or DMSO control was added to each of the wells. Each ligand assay was performed in duplicate and measured using a PHERAstar FS Microplate Reader (BMG Labtech, Ortenberg, Germany) with instrument settings as described in the manufacturer’s instructions for LanthaScreen assays. The TR-FRET signal was expressed as the ratio of the signals at 520 nm and 490 nm. The data were fitted to a three-parameter ligand-binding curve using SigmaPlot (version 12.5, Systat Software Inc., San Jose CA) and normalized to the lower asymptote of each binding curve. […] Since the assay involves interactions between ligand and LBD, and ligand-dependent interactions between the LBD and fluorescein-labeled co activator, the binding assay data were interpreted by simulating these coupled chemical reactions using the biochemical simulator COPASI version 4.3.[23], [54]
(§3) The readout of the Lanthascreen TR-FRET binding assay is based on a Forster resonance energy transfer (FRET) signal generated from the interaction between a terbium-labelled anti-glutathione-S-transferase (GST) antibody and a fluorescein-labelled coactivator peptide. The RAR ligand-binding domain (LBD) is a GST fusion protein and interaction between the LBD and the fluorescein-labelled coactivator peptide is driven by the binding of ligand to the LBD, and detected by the FRET signal from the terbium/fluorescein interaction when the terbium-labelled anti-GST binds the LBD fusion protein. The output of the assay thus relies on two binding interactions: ligand with LBD, and ligand-bound LBD with the coactivator peptide. As both interactions may be affected by the fit of ligand to the binding pocket of the LBD, we used the biochemical pathway simulator COPASI^1 to build a simple model of how the FRET signal output in the assay will vary according to differential changes in the kinetics of the two binding interactions. Reactions were modelled deterministically using mass-action kinetics described by ordinary differential equations (ODE) within COPASI.^1 This model enables us to assess the effect of different rate constants and varying ligand concentration on the formation of the final ternary complex that is the read-out from the Lanthascreen TR-FRET assay.

[2] = molecular target: T2, RARγ ligand-binding domain (GST-RAR-γ-LBD) (Homo sapiens, UniProt P13631); assay: LanthaScreen TR-FRET RARγ co-activator (receptor binding) assay; format: biochemical; details: for EC50: estimated EC50, TR-FRET co-activator assay, 4 h incubation, read-out: EC50 (95% confidence range) RARγ; for binding-curve upper asymptote (coactivator recruitment), RARγ: in words, Fig. 6C
T2 construct: purchased Invitrogen
T2 sequence (P13631 185-419 limits assumed): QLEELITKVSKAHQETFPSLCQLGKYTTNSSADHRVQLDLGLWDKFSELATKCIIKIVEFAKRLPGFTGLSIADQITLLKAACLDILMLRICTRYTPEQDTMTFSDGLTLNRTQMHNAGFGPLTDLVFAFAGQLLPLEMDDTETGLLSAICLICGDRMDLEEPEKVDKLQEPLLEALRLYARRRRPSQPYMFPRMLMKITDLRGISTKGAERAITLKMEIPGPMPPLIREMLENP
Description: as §1, §2, §3

[3] = system: TERA2.cl.SP12 embryonal carcinoma stem cells; assay: Flow cytometry of cell-surface differentiation markers SSEA-3, TRA-1–60, A2B5; format: cell-based, human; details: 10 μM retinoid, 7 days, compared to ATRA and control cultures, Fig. 7A
Text: First, we examined neuronal differentiation in pluripotent TERA2.cl.SP12 human embryonal carcinoma stem cells in response to retinoid treatment. TERA2.cl.SP12 cells have been used in previous studies, [29] to test the ability of synthetic retinoids to induce differentiation along a neuronal or an alternative epithelial pathway at long in vitro timescales of up to three weeks. […] Since the parent carboxylic acid (GZ24) had little activity, the response to GZ22 was a real effect of the ester rather than a result of hydrolysis of the parent ester to the carboxylic acid.
The expression of specific cell surface protein markers (SSEA-3, TRA-1–60, A2B5) on TERA2.cl.SP12 was analyzed using flow cytometry as described previously.[53] Briefly, TERA2.cl.SP12 cells, 2 × 10^5 per 25 cm^2 flask, were seeded 12–24 h before treatment with 10 μM retinoid for 7 days. The primary antibodies used were SSEA-3 (diluted 1:10, University of Iowa Hybridoma Bank), TRA-1–60 (diluted 1:50, Abcam) and neural cell marker A2B5 (diluted 1:40, R&D Systems). Labeled cells were analyzed in a Guave EasyCyte Plus System (Millipore) flow cytometer and thresholds determining the numbers of positively expressing cells were set against the negative control antibody, P3X.

Compound | EC50 [1] [nM] | binding-curve upper asymptote (coactivator recruitment), RARβ [1] | EC50 [2] [nM] | proportion of cells expressing differentiation markers SSEA-3, TRA-1–60, A2B5 [3] | binding-curve upper asymptote (coactivator recruitment), RARγ [2]
CCOC(=O)c1ccc(-c2nc(-c3ccccc3)c(C)s2)cc1 [GZ22] | 136 | high asymptote | 383 | Intermediate responses | –
CCOCCOc1nc(-c2ccc(C(=O)O)cc2)sc1C [GZ18] | 56.7 | very low asymptotes | 141 | very little activity | very low binding-curve upper asymptotes
Cc1sc(-c2ccc(C(=O)O)cc2)nc1-c1ccc2c(c1)C(C)(C)CCC2(C)C [GZ25] | 11 | – | 98.9 | most potent, even compared to ATRA | high
